Here are results for 1 sequence from article PMC7284870, “Antimicrobial Peptides from Rat-Tailed Maggots of the Drone Fly Eristalis tenax Show Potent Activity against Multidrug-Resistant Gram-Negative Bacteria” (Microorganisms, 2020).

For one assay, the system named is E. coli ATCC25922. As to the kind of experiment: Checkerboard assay EtDip with colistin. Format: cell-based, Escherichia coli. The note with it: CAMB, + 150 mM NaCl, + 1.25 mM CaCl2; FICindex ≤0.5 = synergy. As to the method:
(§1) The interactions between pairs of compounds were analyzed using checkerboard assays in a 384-well microtiter plate with an assay volume of 20 µL. Immediately before the test runs, the bacterial cultures were diluted in CAMB to a density of 5 × 10^5 cells/mL. The two compounds for combinatorial testing were arrayed as 10-fold concentrated serial dilutions with respect to the final concentration, vertically for one compound and horizontally for the other, in the same 384-well microplate. Subsequently, we transferred 2-µL aliquots to new 384-well microtiter plates, and growth inhibition in each well was determined, as described for the MIC values above. Fractional inhibitory concentration (FIC) and FICindex values for each combination were calculated using the following formulae, where a
(§2) FICindex ≤0.5 indicates synergy and a FICindex >4 indicates antagonism.
(§3) FIC for compound A = MIC of compound A in combination/MIC of compound A
(§4) FIC for compound B = MIC of compound B in combination/MIC of compound B

Another assay has as its system A. baumannii ATCC19606. Description: Checkerboard assay EtDip with colistin. The note with it: CAMB, + 150 mM NaCl, + 1.25 mM CaCl2; FICindex ≤0.5 = synergy. The assay is classed as cell-based, Acinetobacter baumannii. As to the method:
as §1, §2, §3, §4

Another assay relates to P. aeruginosa ATCC 27853. As to the kind of experiment: Checkerboard assay EtDip with colistin. Format: cell-based, Pseudomonas aeruginosa. The note with it: CAMB and + 150 mM NaCl; not in the presence of CaCl2. The method, then:
as §1, §2, §3, §4

In another assay the test system is reference strains. As to the kind of experiment: MIC, several reference strains. Format: cell-based. The note with it: reference strains of Table 2. The method, then:
The strains that were used in this study (Table 2 and Table S1) were cultivated at 37 °C in cation-adjusted Mueller–Hinton broth (CAMB) in Erlenmeyer flasks, or on the same medium with agar in Petri dishes. Exceptionally, Mycobacterium smegmatis was cultivated at 37 °C in brain heart infusion (BHI) medium that was supplemented with 1% Tween-80 in Erlenmeyer flasks, or on the same medium lacking detergent but with agar in Petri dishes. Strains listed with Robert Koch Institute (RKI) strain numbers are clinical isolates from the RKI strain collection originating from hospitalized patients in Germany. The remaining strains originated from the Sanofi strain collection and they were originally purchased from the American Type Culture Collection or the German Collection of Microorganisms and Cell Cultures. Meropenem/colistin-resistant strains were maintained, as described above, with the appropriate antibiotic added at levels below the minimal inhibitory concentration (MIC).
The MIC values were determined in 384-well microtiter plates with an assay volume of 20 µL. […] The growth of M. smegmatis was measured using the BacTiter-Glo luminescence test system (Promega, Madison, WI, USA). The growth of the other species was determined by visual inspection of the microtiter plate and turbidimetry based on the optical density at 600 nm (OD600). […]

With “QFNMQGGGSPRQGFDVNANARFPIWQSQNARNSVHGTASYAQHLGGPYGNSRPNFGGGLQFT [EtDip, diptericin-like peptide of Eristalis tenax]”, the “interaction with colistin (FICindex)” value with E. coli ATCC25922, in the assay on A. baumannii ATCC19606 and with P. aeruginosa ATCC 27853 was “Synergistic interactions” each time. Moreover, in the assay on reference strains, the “activity against the test strains” value is “no activity”.
